According to US20040087798A1, “Novel amide compounds” (priority 2000, published 2004):

Row | melting point | SMILES
1 | 115 to 117 °C | N=C(Nc1cccc(NC(=O)C=Cc2ccccc2)c1)c1ccccc1 [Example 2, N-[3-(iminobenzylamino)phenyl]cinnamamide]
2 | 219 to 221 °C | COc1ccccc1/C=C/C(=O)Nc1cccc(NC(=N)c2ccccc2)c1 [Example 14, (2E)-N-[3-(iminobenzylamino)phenyl]-3-(2-methoxyphenyl)-2-propenamide]
3 | 189 to 191 °C | N=C(Nc1ccc(F)c(NC(=O)/C=C/c2ccccc2Cl)c1)c1ccccc1 [Example 17, (2E)-N-[2-fluoro-5-(iminobenzylamino)phenyl]-3-(2-chlorophenyl)-2-propenamide]
4 | 137 to 139 °C | N=C(Nc1cc(Cl)cc(NC(=O)/C=C/c2ccccc2C(F)(F)F)c1)c1ccccc1 [Example 35, (2E)-N-[3-chloro-5-(iminobenzylamino)phenyl]-3-[2-(trifluoromethyl)phenyl]-2-propenamide]
5 | 181 to 182 °C | N#Cc1cc(NC(=N)c2ccccc2)cc(NC(=O)/C=C/c2ccccc2C(F)(F)F)c1 [Example 36, (2E)-N-[3-cyano-5-(iminobenzylamino)phenyl]-3-[2-(trifluoromethyl)phenyl]-2-propenamide]
6 | 147 to 149 °C | Cc1ccc(/C=C/C(=O)Nc2cccc(NC(=N)c3ccccc3)c2)cc1 [Example 38, (2E)-N-[3 (iminobenzylamino)phenyl]-3-(4-methylphenyl)-2-propenamide]
7 | 179 to 180 °C | Cc1cccc(/C=C/C(=O)Nc2cccc(NC(=N)c3ccccc3)c2)c1 [Example 39, (2E)-N-[3-(iminobenzylamino)phenyl]-3-(3-methylphenyl)-2-propenamide]
8 | 109 to 114 °C | Cc1ccccc1/C=C/C(=O)Nc1cccc(NC(=N)c2ccccc2)c1 [Example 40, (2E)-N-[3 (iminobenzylamino)phenyl]-3-(2-methylphenyl)-2-propenamide]
9 | 82 to 84 °C | N=C(Nc1cccc(NC(=O)/C=C/c2ccccc2C(F)(F)F)c1)c1ccccc1 [Example 46, (2E)-N-[3-(iminobenzylamino)phenyl]-3-[2-(trifluoromethyl)phenyl]-2-propenamide]
10 | 109 to 110 °C | N=C(Nc1cccc(NC(=O)/C=C/c2ccc(Cl)cc2)c1)c1ccccc1 [Example 47, (2E)-N-[3-(iminobenzylamino)phenyl]-3-(4-chlorophenyl)-2-propenamide]
11 | 148 to 149 °C | COc1cccc(/C=C/C(=O)Nc2cccc(NC(=N)c3ccccc3)c2)c1 [Example 48, (2E)-N-[3(iminobenzylamino)phenyl]-3-(3-methoxyphenyl)-2-propenamide]
12 | 260 to 262 °C | N=C(Nc1cccc(NC(=O)/C=C/c2cccc(Cl)c2)c1)c1ccccc1 [Example 53, (2E)-N-[3-(iminobenzylamino)phenyl]-3-(3-chlorophenyl)-2-propenamide]
13 | 262 to 264 °C | N=C(Nc1cccc(NC(=O)/C=C/c2ccccc2Cl)c1)c1ccccc1 [Example 54, (2E)-N-[3-(iminobenzylamino)phenyl]-3-(2-chlorophenyl)-2-propenamide]
14 | 185 to 187 °C | N=C(Nc1cccc(NC(=O)/C=C/c2ccccc2C(F)(F)F)c1F)c1ccccc1 [Example 61, (2E)-N-[3-(iminobenzylamino)-2-fluorophenyl]-3-[2-(trifluoromethyl)phenyl]-2-propenamide]
15 | 103 to 105 °C | N=C(Nc1cc(F)cc(NC(=O)/C=C/c2ccccc2C(F)(F)F)c1)c1ccccc1 [Example 137, (2E)-N-[3-fluoro-5-(iminobenzylamino)phenyl]-3-(2-trifluoromethylphenyl)-2-propenamide]
16 | 186 to 187 °C | N=C(Nc1cc(Cl)cc(NC(=O)/C=C/c2ccccc2F)c1)c1ccccc1 [Example 138, (2E)-N-[3-chloro-5-(iminobenzylamino)phenyl]-3-(2-fluorophenyl)-2-propenamide]

Continued, compound first:

Row | SMILES | melting point
17 | N=C(Nc1cccc(NC(=O)Cc2ccccc2)c1)c1ccccc1 [Example 1, N-[3-(iminobenzylamino)phenyl]phenylacetamide] | 213 to 214 °C
18 | Cc1ncccc1Oc1ccc(NC(=O)/C=C/c2ccccc2C(F)(F)F)cn1 [Example 9, (2E)-N-[6-(2-methyl-3-pyridyloxy)pyridin-3-yl]-3-[2-(trifluoromethyl)phenyl]-2-propenamide] | 214 to 216 °C
19 | N=C(Nc1ccc(F)c(NC(=O)/C=C/c2ccccc2Cl)c1)c1cccs1 [Example 16, (2E)-N-[2-fluoro-5-[[imino(2-thienyl)methyl]amino]phenyl]-3-(2-chlorophenyl)-2 propenamide] | 215 to 216 °C
20 | COc1ccc(Cl)cc1C(=N)Nc1ccc(F)c(NC(=O)/C=C/c2ccccc2Cl)c1 [Example 18, (2E)-N-[5-[[(5-chloro-2-methoxyphenyl)(imino)methyl]amino]-2-fluorophenyl]-3-(2-chlorophenyl)-2-propenamide] | 229 to 230 °C
21 | COc1ccc(F)cc1C(=N)Nc1cc(Cl)cc(NC(=O)/C=C/c2ccccc2Cl)c1 [Example 23, (2E)-N-[3-chloro-5-[[(5-fluoro-2-methoxyphenyl)(imino)methyl]amino]phenyl]-3-(2-chlorophenyl)-2-propenamide] | 238 to 239 °C
22 | COc1ccc(Cl)cc1C(=N)Nc1cc(Cl)cc(NC(=O)/C=C/c2ccccc2Cl)c1 [Example 24, (2E)-N-[3-chloro-5-[[(5-chloro-2-methoxyphenyl)(imino)methyl]amino]phenyl]-3-(2-chlorophenyl)-2-propenamide] | 226 to 228 °C
23 | CC(C)c1ccc(NC(=N)c2cccc(NC(=O)C=Cc3ccccc3Cl)c2)cc1 [Example 27, N-[3-[imino(4-isopropylanilino)methyl]phenyl}-2-chlorocinnamamide] | 112 to 118 °C
24 | COc1ccc(F)cc1C(=N)Nc1cc(Cl)cc(NC(=O)/C=C/c2ccccc2C(F)(F)F)c1 [Example 30, (2E)-N-[3-chloro-5-[[(5-fluoro-2-methoxyphenyl)(imino)methyl]amino]phenyl]-3-[2-(trifluoromethyl)phenyl]-2-propenamide] | 213 to 214 °C
25 | N=C(Nc1cc(Cl)cc(NC(=O)/C=C/c2ccccc2Cl)c1)c1ccccc1 [Example 31, (2E)-N-[3-chloro-5-(iminobenzylamino)phenyl]-3-(2-chlorophenyl)-2-propenamide] | 105 to 115 °C
26 | N=C(Nc1cc(NC(=O)/C=C/c2ccccc2Cl)cc(C(F)(F)F)c1)c1cccs1 [Example 32, (2E)-N-[3-trifluoromethyl-5-[[imino(2-thienyl)methyl]amino]phenyl]-3-(2-chlorophenyl)-2-propenamide] | 206 to 208 °C
27 | N=C(Nc1cc(Cl)cc(NC(=O)/C=C/c2ccccc2Cl)c1)c1cccs1 [Example 33, (2E)-N-[3-chloro-5-[[imino(2-thienyl)methyl]amino]phenyl]-3-(2-chlorophenyl)-2-propenamide] | 123 to 124 °C
28 | N=C(Nc1cc(Cl)cc(NC(=O)/C=C/c2ccccc2C(F)(F)F)c1)c1cccs1 [Example 34, (2E)-N-[3-chloro-5-[[imino(2-thienyl)methyl]amino]phenyl]-3-[2-(trifluoromethyl)phenyl]-2-propenamide] | 178 to 179 °C
29 | Cn1c(NCc2cccc(NC(=O)C=Cc3ccccc3Cl)c2)nc2ccccc21 [Example 43, N-[3-[[(1-methyl-1H-benzimidazol-2-yl)amino]methyl]phenyl]-3-(2-chlorophenyl)-2-propenamide] | 188 to 191 °C
30 | O=C(C=Cc1ccccc1Cl)Nc1ccc(NCc2ccccn2)nc1 [Example 44, N-[6-[(2-pyridylmethyl)amino]-3-pyridyl]-3-(2-chlorophenyl)-2-propenamide] | 164 to 165 °C
31 | Cc1ncccc1Oc1ccc(NC(=O)C=Cc2ccccc2Cl)cn1 [Example 45, N-[6-[(2-methyl-3-pyridyl)oxy]-3-pyridyl]-3-(2-chlorophenyl)-2-propenamide] | 187 to 189 °C
32 | O=C(C=Cc1ccccc1Cl)Nc1cccc(CNc2ccc3ccccc3n2)c1 [Example 50, N-[3-[(2-quinolylamino)methyl]phenyl]-3-(2-chlorophenyl)-2-propenamide] | 170 to 171 °C
33 | CN(C)c1ccc(C(=N)Nc2cccc(NC(=O)C=Cc3ccccc3)c2)cc1 [Example 51, N-[3-[[[4-(dimethylamino)phenyl](imino)methyl]amino]phenyl]cinnamamide] | 225 to 227 °C
34 | N=C(Nc1cc(Cl)cc(NC(=O)/C=C/c2ccccc2C(F)(F)F)c1)c1ccsc1 [Example 56, (2E)-N-[3-chloro-5-[[imino(3-thienyl)methyl]amino]phenyl]-3-[2-(trifluoromethyl)phenyl]-2-propenamide] | 121 to 123 °C
35 | O=C(C=Cc1ccccc1Cl)Nc1cccc(-c2nc3ccccc3[nH]2)c1 [Example 58, N-[3-(1H-benzimidazol-2-yl)phenyl]-3-(2-chlorophenyl)-2-propenamide] | 152 to 154 °C
36 | Cc1ncccc1Oc1ccc(C(=N)Nc2cc(Cl)cc(NC(=O)C=Cc3ccccc3Cl)c2)cc1 [Example 59, N-[3-chloro-5-[[imino[4-[(2-methyl-3-pyridyl)oxy]phenyl]methyl]amino]phenyl]-3-(2-chlorophenyl)-2-propenamide] | 105 to 107 °C
37 | N=C(Nc1ccc(F)c(NC(=O)/C=C/c2ccccc2C(F)(F)F)c1)c1cccs1 [Example 62, (2E)-N-[2-fluoro-5-[[imino(2-thienyl)methyl]amino]phenyl]-3-[2-(trifluoromethyl)phenyl]-2-propenamide] | 208 to 209 °C
38 | Cc1ncccc1Oc1ccc(C(=N)Nc2cc(Cl)cc(NC(=O)C=Cc3ccccc3C(F)(F)F)c2)cc1 [Example 64, N-[3-chloro-5-[[imino[4-[(2-methyl-3-pyridyl)oxy]phenyl]methyl]amino]phenyl]-3-[2-(trifluoromethyl)phenyl]-2-propenamide] | 114 to 119 °C
39 | N#Cc1ccccc1/C=C/C(=O)Nc1cc(Cl)cc(NC(=N)c2ccccc2)c1 [Example 67, (2E)-N-[3-chloro-5-(iminobenzylamino)phenyl]-3-(2-cyanophenyl)-2-propenamide] | 220 to 221 °C
